The assay has as its target TRKA (Homo sapiens (Human), UniProt P04629). Briefly: Isolated TRK enzyme assay (HTRF KinEASE-TK), TRKA. The format is biochemical. The following applies: read-out: Trka enzyme (IC50). On the technique in general: In TR-FRET formats the signal depends on donor and acceptor labels being close together.
Sequence of TRKA (P04629 441-796): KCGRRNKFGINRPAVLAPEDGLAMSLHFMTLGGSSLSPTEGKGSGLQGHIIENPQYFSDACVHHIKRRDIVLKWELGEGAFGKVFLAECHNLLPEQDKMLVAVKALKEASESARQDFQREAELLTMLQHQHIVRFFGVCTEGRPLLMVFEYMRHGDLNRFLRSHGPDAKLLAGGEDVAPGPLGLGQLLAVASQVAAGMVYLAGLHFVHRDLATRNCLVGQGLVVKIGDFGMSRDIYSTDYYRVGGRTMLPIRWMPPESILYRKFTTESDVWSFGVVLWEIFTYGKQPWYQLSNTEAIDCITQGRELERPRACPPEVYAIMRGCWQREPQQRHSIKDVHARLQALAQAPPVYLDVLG
With `O=C(Cc1ccc(C(F)(F)F)cc1)Nc1cncc(C(=O)c2cn(C3(CO)CC3)c3ncncc23)c1` [Example 524, N-{5-[7-(1-Hydroxymethyl-cyclopropyl)-7H-pyrrolo[2,3-d]pyrimidine-5-carbonyl]-pyridin-3-yl}-2-(4-trifluoromethyl-phenyl)-acetamide], the IC50 is 4.53 nM.

As for `O=C(Cn1ccc(C(F)(F)F)n1)Nc1cncc(C(=O)c2cn(C3(CO)CC3)c3ncncc23)c1` [Example 525, N-{5-[7-(1-Hydroxymethyl-cyclopropyl)-7H-pyrrolo[2,3-d]pyrimidine-5-carbonyl]-pyridin-3-yl}-2-(3-trifluoromethyl-pyrazol-1-yl)-acetamide], the IC50 was determined as 9.48 nM.

On to `CC(C)n1cc(C(=O)c2cncc(NC(=O)Nc3cc(C4CC4)nn3-c3cnn(C)c3)c2)c2cncnc21` [Example 526, 1-(3-Cyclopropyl-1′-methyl-1′H-[1,4′]bipyrazolyl-5-yl)-3-[5-(7-isopropyl-7H-pyrrolo[2,3-d]pyrimidine-5-carbonyl)-pyridin-3-yl]-urea], for which the IC50 came out at 1.51 nM.

`CC(C)n1cc(C(=O)c2cncc(NC(=O)Nc3cc(C(C)(C)C)nn3-c3cnn(C)c3)c2)c2cncnc21` [Example 527, 1-(3-tert-Butyl-1′-methyl-1′H-[1,4′]bipyrazolyl-5-yl)-3-[5-(7-isopropyl-7H-pyrrolo[2,3-d]pyrimidine-5-carbonyl)-pyridin-3-yl]-urea]: the IC50 was found to be 4.64 nM.

Turning to `CC(C)(C)n1cc(C(=O)c2cncc(NC(=O)Cc3nc4ccccc4[nH]3)c2)c2cnc(N)nc21` [Example 528, N-[5-(2-Amino-7-tert-butyl-7H-pyrrolo[2,3-d]pyrimidine-5-carbonyl)-pyridin-3-yl]-2-(1H-benzoimidazol-2-yl)-acetamide], the IC50 came to 2.25 nM.

In the case of `CC(C)(C)n1cc(C(=O)c2cncc(NC(=O)Cc3ccc(Br)cn3)c2)c2cnc(N)nc21` [Example 529, N-[5-(2-Amino-7-tert-butyl-7H-pyrrolo[2,3-d]pyrimidine-5-carbonyl)-pyridin-3-yl]-2-(5-bromo-pyridin-2-yl)-acetamide], the IC50 was 3.93 nM.

With `CC(C)(C)n1cc(C(=O)c2cncc(NC(=O)Cc3ccc(C#N)cn3)c2)c2cnc(N)nc21` [Example 530, N-[5-(2-Amino-7-tert-butyl-7H-pyrrolo[2,3-d]pyrimidine-5-carbonyl)-pyridin-3-yl]-2-(5-cyano-pyridin-2-yl)-acetamide], the IC50 came out at 5.9 nM.

For the compound `C[C@@H](CO)n1cc(C(=O)c2cncc(NC(=O)Cc3ccc(OC(F)F)cc3)c2)c2cncnc21` [Example 531, 2-(4-Difluoromethoxy-phenyl)-N-{5-[7-((S)-2-hydroxy-1-methyl-ethyl)-7H-pyrrolo[2,3-d]pyrimidine-5-carbonyl]-pyridin-3-yl}-acetamide], the IC50 amounted to 52.4 nM.

Take `C[C@@H](CO)n1cc(C(=O)c2cncc(NC(=O)Cn3cc4ccccc4n3)c2)c2cncnc21` [Example 532, N-{5-[7-((S)-2-Hydroxy-1-methyl-ethyl)-7H-pyrrolo[2,3-d]pyrimidine-5-carbonyl]-pyridin-3-yl}-2-indazol-2-yl-acetamide]: the IC50 was 11.1 nM.

On to `C[C@@H](CO)n1cc(C(=O)c2cncc(NC(=O)Cc3nc4ccccc4[nH]3)c2)c2cncnc21` [Example 533, 2-(1H-Benzoimidazol-2-yl)-N-{5-[7-((S)-2-hydroxy-1-methyl-ethyl)-7H-pyrrolo[2,3-d]pyrimidine-5-carbonyl]-pyridin-3-yl}-acetamide], for which the IC50 came out at 31.3 nM.

For the compound `C[C@@H](CO)n1cc(C(=O)c2cncc(NC(=O)Cc3ccc(OC(F)(F)F)cc3)c2)c2cncnc21` [Example 534, N-{5-[7-((S)-2-Hydroxy-1-methyl-ethyl)-7H-pyrrolo[2,3-d]pyrimidine-5-carbonyl]-pyridin-3-yl}-2-(4-trifluoromethoxy-phenyl)-acetamide], the IC50 was found to be 20.3 nM.

For `C[C@@H](CO)n1cc(C(=O)c2cncc(NC(=O)Cc3ccc(F)c(F)c3)c2)c2cncnc21` [Example 535, 2-(3,4-Difluoro-phenyl)-N-{5-[7-((S)-2-hydroxy-1-methyl-ethyl)-7H-pyrrolo[2,3-d]pyrimidine-5-carbonyl]-pyridin-3-yl}-acetamide], the half-inhibitory concentration (IC50) worked out at 51.2 nM.

Take `COCC(C)(C)n1cc(C(=O)c2cncc(NC(=O)Cc3ccc(Cl)cn3)c2)c2cncnc21` [Example 536, 2-(5-Chloro-pyridin-2-yl)-N-{5-[7-(2-methoxy-1,1-dimethyl-ethyl)-7H-pyrrolo[2,3-d]pyrimidine-5-carbonyl]-pyridin-3-yl}-acetamide]: the IC50 is 1.57 nM.

As for `COCC(C)(C)n1cc(C(=O)c2cncc(NC(=O)Cc3ccc(F)cn3)c2)c2cncnc21` [Example 537, 2-(5-Fluoro-pyridin-2-yl)-N-{5-[7-(2-methoxy-1,1-dimethyl-ethyl)-7H-pyrrolo[2,3-d]pyrimidine-5-carbonyl]-pyridin-3-yl}-acetamide], the IC50 is 10.6 nM.

In the case of `COCC(C)(C)n1cc(C(=O)c2cncc(NC(=O)Cn3ccc(C4CC4)n3)c2)c2cncnc21` [Example 538, 2-(3-Cyclopropyl-pyrazol-1-yl)-N-{5-[7-(2-methoxy-1,1-dimethyl-ethyl)-7H-pyrrolo[2,3-d]pyrimidine-5-carbonyl]-pyridin-3-yl}-acetamide], the IC50 worked out at 1.51 nM.

Regarding `COCC(C)(C)n1cc(C(=O)c2cncc(NC(=O)Cc3ccc(F)cc3)c2)c2cncnc21` [Example 539, 2-(4-Fluoro-phenyl)-N-{5-[7-(2-methoxy-1,1-dimethyl-ethyl)-7H-pyrrolo[2,3-d]pyrimidine-5-carbonyl]-pyridin-3-yl}-acetamide], the IC50 is 4.08 nM.

As for `CN(C(=O)Cc1ccc(F)cc1)c1cncc(C(=O)c2cn(C(C)(C)C)c3ncncc23)c1` [Example 540, N-[5-(7-tert-Butyl-7H-pyrrolo[2,3-d]pyrimidine-5-carbonyl)-pyridin-3-yl]-2-(4-fluoro-phenyl)-N-methyl-acetamide], the IC50 stood at 153 nM.

For `CN(C(=O)Cc1ccc(Cl)cn1)c1cncc(C(=O)c2cn(C(C)(C)C)c3ncncc23)c1` [Example 543, N-[5-(7-tert-Butyl-7H-pyrrolo[2,3-d]pyrimidine-5-carbonyl)-pyridin-3-yl]-2-(5-chloro-pyridin-2-yl)-N-methyl-acetamide], the IC50 came to 50 nM.

In the case of `CN(C(=O)Cc1ccc(Cl)cc1)c1cncc(C(=O)c2cn(C(C)(C)C)c3ncncc23)c1` [Example 544, N-[5-(7-tert-Butyl-7H-pyrrolo[2,3-d]pyrimidine-5-carbonyl)-pyridin-3-yl]-2-(4-chloro-phenyl)-N-methyl-acetamide], the IC50 was 31.6 nM.

With `CC(C)(C)n1cc(C(=O)c2cncc(NC(=O)Cc3ccc(Cl)cc3)c2)c2cncnc21` [Example 545, N-[5-(7-tert-Butyl-7H-pyrrolo[2,3-d]pyrimidine-5-carbonyl)-pyridin-3-yl]-2-(4-chloro-phenyl)-acetamide], the IC50 was 2.95 nM.

`CC(C)(C)n1cc(C(=O)c2cncc(NC(=O)Cc3ccc(F)cc3)c2)c2cncnc21` [Example 546, N-[5-(7-tert-Butyl-7H-pyrrolo[2,3-d]pyrimidine-5-carbonyl)-pyridin-3-yl]-2-(4-fluoro-phenyl)-acetamide]: the IC50 worked out at 5.34 nM.

Take `COCC(C)(C)n1cc(C(=O)c2cncc(NC(=O)Cc3ccc(Cl)cn3)c2)c2cnc(N)nc21` [Example 547, N-{5-[2-Amino-7-(2-methoxy-1,1-dimethyl-ethyl)-7H-pyrrolo[2,3-d]pyrimidine-5-carbonyl]-pyridin-3-yl}-2-(5-chloro-pyridin-2-yl)-acetamide]: the IC50 is 3.88 nM.

On to `COCC(C)(C)n1cc(C(=O)c2cncc(NC(=O)Cc3ccc(F)cn3)c2)c2cnc(N)nc21` [Example 548, N-{5-[2-Amino-7-(2-methoxy-1,1-dimethyl-ethyl)-7H-pyrrolo[2,3-d]pyrimidine-5-carbonyl]-pyridin-3-yl}-2-(5-fluoro-pyridin-2-yl)-acetamide], for which the IC50 amounted to 21.2 nM.

For the compound `COCC(C)(C)n1cc(C(=O)c2cncc(NC(=O)Cn3ccc(C(F)(F)F)n3)c2)c2cnc(N)nc21` [Example 549, N-{5-[2-Amino-7-(2-methoxy-1,1-dimethyl-ethyl)-7H-pyrrolo[2,3-d]pyrimidine-5-carbonyl]-pyridin-3-yl}-2-(3-trifluoromethyl-pyrazol-1-yl)-acetamide], the IC50 came out at 3.22 nM.

On to `COCC(C)(C)n1cc(C(=O)c2cncc(NC(=O)Cn3cc(C(F)(F)F)nn3)c2)c2cnc(N)nc21` [Example 550, N-{5-[2-Amino-7-(2-methoxy-1,1-dimethyl-ethyl)-7H-pyrrolo[2,3-d]pyrimidine-5-carbonyl]-pyridin-3-yl}-2-(4-trifluoromethyl-[1,2,3]triazol-1-yl)-acetamide], for which the IC50 stood at 16.1 nM.

Consider `COCC(C)(C)n1cc(C(=O)c2cncc(NC(=O)Cn3cc(C(F)(F)F)cn3)c2)c2cnc(N)nc21` [Example 551, N-{5-[2-Amino-7-(2-methoxy-1,1-dimethyl-ethyl)-7H-pyrrolo[2,3-d]pyrimidine-5-carbonyl]-pyridin-3-yl}-2-(4-trifluoromethyl-pyrazol-1-yl)-acetamide], for which the IC50 was found to be 2.78 nM.

For `COCC(C)(C)n1cc(C(=O)c2cncc(NC(=O)Cn3cc(C4CC4)nn3)c2)c2cnc(N)nc21` [Example 552, N-{5-[2-Amino-7-(2-methoxy-1,1-dimethyl-ethyl)-7H-pyrrolo[2,3-d]pyrimidine-5-carbonyl]-pyridin-3-yl}-2-(4-cyclopropyl-[1,2,3]triazol-1-yl)-acetamide], the IC50 stood at 7.62 nM.

`CC(C)(CO)n1cc(C(=O)c2cncc(NC(=O)Cn3cc4ccccc4n3)c2)c2cnc(N)nc21` [Example 553, N-{5-[2-Amino-7-(2-hydroxy-1,1-dimethyl-ethyl)-7H-pyrrolo[2,3-d]pyrimidine-5-carbonyl]-pyridin-3-yl}-2-indazol-2-yl-acetamide]: the IC50 was determined as 4.4 nM.

With `CC(C)(CO)n1cc(C(=O)c2cncc(NC(=O)Cn3cnc4ccccc4c3=O)c2)c2cnc(N)nc21` [Example 554, N-{5-[2-Amino-7-(2-hydroxy-1,1-dimethyl-ethyl)-7H-pyrrolo[2,3-d]pyrimidine-5-carbonyl]-pyridin-3-yl}-2-(4-oxo-4H-quinazolin-3-yl)-acetamide], the IC50 is 270 nM.

The term IC50 denotes the midpoint of a concentration-inhibition curve.
